Drawing on PubChem BioAssay (NCI), this text covers TGI and GI50 for 19 molecules.

Test systems include OVCAR-3 ovarian; HCT-116 colon; PC-3 prostate; UO-31 renal; SK-MEL-5 melanoma; HCC-2998 colon; HS 578T breast; BT-549 breast; SR leukemia; MDA-MB-231 breast; SK-MEL-28 melanoma.
Test in all cases: NCI tumour cell line growth inhibition, 48 h

Molecules are shown by their SMILES.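 Cells were grown in 96-well plates and exposed to each compound for 48 hours at five concentrations; endpoints were interpolated linearly between bracketing concentrations, or set to the highest concentration if not reached. GI50 is the concentration that inhibits growth by half. At the TGI there is no net growth.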 Bounds are passed on as bounds.

Consider `Nc1nc(NNc2cccc(F)c2)cc(=O)[nH]1`, for which the TGI with OVCAR-3 ovarian was 51.5 µM; with HCT-116 colon it was 61.2 µM; with PC-3 prostate, 59.7 µM; in the test on UO-31 renal, over 100 µM; in the test on SK-MEL-5 melanoma it was over 100 µM; in the test with HCC-2998 colon it was over 100 µM. The TGI in the test on HS 578T breast, in the test with BT-549 breast, in the test on SR leukemia, in the test on MDA-MB-231 breast and with SK-MEL-28 melanoma was over 100 µM throughout.
With `C[C@]12C=CC(=O)C=C1CC[C@@H]1[C@@H]2CC[C@@]2(C)[C@H]1CC[C@]2(O)C(N)=O`, the TGI in the test on OVCAR-3 ovarian, in the test with HCT-116 colon, in the test on PC-3 prostate, in the test on UO-31 renal, in the test on SK-MEL-5 melanoma and in the test on HCC-2998 colon was over 100 µM each time. Besides, the TGI in the test on HS 578T breast, in the test with BT-549 breast, with SR leukemia, with MDA-MB-231 breast and in the test with SK-MEL-28 melanoma was over 100 µM in each case.
For the molecule `O=C1Oc2ccccc2C1C/C(=N\Nc1ccccc1)c1ccccc1O` (configuration not stated), the TGI was over 100 µM in the test on OVCAR-3 ovarian; over 100 µM in the test with HCT-116 colon; over 100 µM with PC-3 prostate; 77.6 µM in the test with UO-31 renal; over 100 µM in the test on SK-MEL-5 melanoma; over 100 µM in the test with HCC-2998 colon. Also, the TGI was over 100 µM in the test on HS 578T breast; over 100 µM in the test with BT-549 breast; 58.1 µM in the test with SR leukemia; over 100 µM in the test with MDA-MB-231 breast; over 100 µM in the test on SK-MEL-28 melanoma.
On to `Cc1c(C)c2c(c(N)c1C#N)C(=O)N(O)C2=O`, for which the TGI in the test with OVCAR-3 ovarian, in the test on HCT-116 colon, with PC-3 prostate, with UO-31 renal, in the test on SK-MEL-5 melanoma and in the test on HCC-2998 colon was over 100 µM in each case. For the same molecule, the TGI with HS 578T breast, with BT-549 breast, in the test on SR leukemia, in the test with MDA-MB-231 breast and in the test on SK-MEL-28 melanoma was over 100 µM in each case.
As to `CCOC(=O)C(NC(=O)OCc1ccccc1)C(=O)O` (configuration not stated), the TGI in the test with OVCAR-3 ovarian, with HCT-116 colon, in the test with PC-3 prostate, in the test with UO-31 renal, with SK-MEL-5 melanoma and in the test with HCC-2998 colon was over 100 µM throughout. Further, the TGI in the test with HS 578T breast, in the test on BT-549 breast, in the test with SR leukemia, in the test with MDA-MB-231 breast and in the test on SK-MEL-28 melanoma was over 100 µM in each case.
For the molecule `O=C(NCCN1CCCCC1)c1ccc(Br)cc1`, the TGI in the test with OVCAR-3 ovarian, in the test with HCT-116 colon, in the test with PC-3 prostate, in the test on UO-31 renal, in the test on SK-MEL-5 melanoma and with HCC-2998 colon was over 100 µM each time. Also, the TGI with HS 578T breast, with BT-549 breast, in the test with SR leukemia, with MDA-MB-231 breast and with SK-MEL-28 melanoma was over 100 µM each time.
Turning to `CCCCOCCOCCOC1=CC(=O)c2c(O)ccc(O)c2C1=O`, the TGI in the test with OVCAR-3 ovarian is 3 µM; with HCT-116 colon, 3.22 µM; with PC-3 prostate, 7.53 µM; in the test on UO-31 renal it was 2.93 µM; with SK-MEL-5 melanoma, 2.25 µM; in the test on HCC-2998 colon it was 3.25 µM. Also, the TGI was 6.5 µM with HS 578T breast; 3.16 µM with BT-549 breast; over 10 µM in the test with SR leukemia; 3.86 µM with MDA-MB-231 breast; 2.95 µM with SK-MEL-28 melanoma.
On to `CC(CSC(=N)N)C(N)=O` (configuration not stated), for which the TGI in the test on OVCAR-3 ovarian, in the test on HCT-116 colon, with PC-3 prostate, in the test on UO-31 renal, in the test on SK-MEL-5 melanoma and in the test on HCC-2998 colon was over 100 µM throughout. The TGI in the test on HS 578T breast, with BT-549 breast, with SR leukemia, with MDA-MB-231 breast and with SK-MEL-28 melanoma was over 100 µM in each case.
`COc1nc(N=P(c2ccccc2)(c2ccccc2)c2ccccc2)cc(=O)n1C`: the TGI with OVCAR-3 ovarian, in the test on HCT-116 colon, with PC-3 prostate, in the test on UO-31 renal, in the test with SK-MEL-5 melanoma and in the test on HCC-2998 colon was over 100 µM throughout. In addition, the TGI in the test with HS 578T breast, in the test with BT-549 breast, in the test on SR leukemia, with MDA-MB-231 breast and with SK-MEL-28 melanoma was over 100 µM in each case.
As to `CC(=O)CCCCn1c(=O)c2c(nc(Br)n2C)n(C)c1=O`, the TGI in the test with OVCAR-3 ovarian, in the test with HCT-116 colon, with PC-3 prostate, in the test with UO-31 renal, in the test on SK-MEL-5 melanoma and in the test with HCC-2998 colon was over 100 µM each time. The TGI in the test on HS 578T breast, in the test with BT-549 breast, in the test on SR leukemia, in the test on MDA-MB-231 breast and with SK-MEL-28 melanoma was over 100 µM throughout.
Consider `O=C1N/C(=N\N=C\c2ccccc2)C(c2ccccc2)O1` (configuration not stated), for which the TGI with OVCAR-3 ovarian is over 100 µM; in the test on HCT-116 colon, over 100 µM; in the test with PC-3 prostate, over 100 µM; in the test on UO-31 renal, 33.5 µM; in the test on SK-MEL-5 melanoma, over 100 µM; in the test with HCC-2998 colon it was over 100 µM. Further, the TGI in the test with HS 578T breast, in the test on BT-549 breast, in the test with SR leukemia, in the test with MDA-MB-231 breast and in the test on SK-MEL-28 melanoma was over 100 µM throughout.
As to `COc1ccc(C(O)/C(=N/N)c2nc3ccc(Cl)cc3[nH]c2=O)cc1` (configuration not stated), the TGI with OVCAR-3 ovarian, in the test with HCT-116 colon, with PC-3 prostate, with UO-31 renal, in the test on SK-MEL-5 melanoma and with HCC-2998 colon was over 100 µM throughout. Besides, the TGI with HS 578T breast, with BT-549 breast, in the test on SR leukemia, with MDA-MB-231 breast and in the test on SK-MEL-28 melanoma was over 100 µM throughout.
Turning to `COC1(CC[C@@H](C)COC2OC(CO)C(O)C(O)C2O)O[C@H]2C[C@H]3[C@@H]4CC=C5C[C@@H](OC6OC(CO)C(OC7OC(C)C(O)C(O)C7O)C(O)C6OC6OC(C)C(O)C(O)C6O)CC[C@]5(C)[C@H]4CC[C@]3(C)[C@H]2[C@@H]1C` (some centres not stated), the GI50 was 2.04 µM with OVCAR-3 ovarian; 1.96 µM in the test with HCT-116 colon; 1.69 µM with UO-31 renal; 3.51 µM in the test on SK-MEL-5 melanoma; 2.97 µM in the test with HCC-2998 colon; 1.18 µM in the test with HS 578T breast. In addition, the values for the GI50 in the test with BT-549 breast, in the test on SR leukemia and in the test with SK-MEL-28 melanoma were 2.58 µM, 2.96 µM and 2.26 µM, respectively. The TGI is 6.64 µM with OVCAR-3 ovarian; 10.4 µM in the test on HCT-116 colon; 9.58 µM with PC-3 prostate; 5.2 µM in the test on UO-31 renal; 12.2 µM in the test on SK-MEL-5 melanoma; 8.5 µM in the test with HCC-2998 colon. Moreover, the TGI with HS 578T breast was 3.99 µM; in the test on BT-549 breast, 6.81 µM; with MDA-MB-231 breast it was 6.66 µM; with SK-MEL-28 melanoma it was 5.53 µM.
`COc1ccc(Nc2nc3ccccc3n3cccc23)cc1OC`: the TGI worked out at 42.8 µM in the test with OVCAR-3 ovarian; 36.4 µM with HCT-116 colon; 23.9 µM in the test on PC-3 prostate; 39.2 µM in the test on UO-31 renal; 24.2 µM with SK-MEL-5 melanoma; 27.6 µM in the test with HCC-2998 colon. Also, the TGI in the test on HS 578T breast was over 100 µM; with BT-549 breast, 49.3 µM; in the test with SR leukemia it was 37.7 µM; in the test with MDA-MB-231 breast, 40.1 µM; in the test on SK-MEL-28 melanoma, 28.9 µM.
`COc1ccc(/C=c2\c(=O)[nH]c3nc4ccccc4c(=O)n23)cc1`: the TGI in the test on OVCAR-3 ovarian, in the test on HCT-116 colon, in the test on PC-3 prostate, in the test with UO-31 renal, with SK-MEL-5 melanoma and in the test on HCC-2998 colon was over 100 µM each time. Moreover, the TGI in the test on HS 578T breast, in the test on BT-549 breast, in the test with SR leukemia, with MDA-MB-231 breast and with SK-MEL-28 melanoma was over 100 µM in each case.
Take `COc1ccc(C2c3cc4c(cc3OC(NNc3ccccc3)C2C)OCO4)cc1` (configuration not stated): the TGI was 39.8 µM in the test with OVCAR-3 ovarian; 43.2 µM in the test on HCT-116 colon; over 100 µM with PC-3 prostate; over 100 µM with UO-31 renal; 99.4 µM in the test with SK-MEL-5 melanoma; 4.79 µM in the test on HCC-2998 colon. Besides, the TGI with HS 578T breast was over 100 µM; in the test on BT-549 breast it was 76.1 µM; with SR leukemia, 16.3 µM; in the test with MDA-MB-231 breast, over 100 µM; with SK-MEL-28 melanoma it was over 100 µM.
Regarding `CN(C)c1ccc(/C=C/C(=O)c2ccc(O)cc2)cc1`, the TGI in the test on OVCAR-3 ovarian is 9.37 µM; in the test with HCT-116 colon, over 68 µM; in the test on PC-3 prostate it was 63.2 µM; with UO-31 renal, over 100 µM; in the test with SK-MEL-5 melanoma, 23.3 µM; in the test with HCC-2998 colon, 38.1 µM. The TGI was over 69.7 µM in the test with HS 578T breast; over 59 µM with BT-549 breast; 3.02 µM in the test on SR leukemia; over 91.5 µM in the test on MDA-MB-231 breast; over 100 µM in the test with SK-MEL-28 melanoma.
In the case of `C=C1CC(C)(COc2ccc3c(C)c(Cl)c(=O)oc3c2)OC1=O` (configuration not stated), the TGI is 16.9 µM with OVCAR-3 ovarian; 1.57 µM in the test on HCT-116 colon; 12 µM with PC-3 prostate; 9.63 µM with UO-31 renal; 4.2 µM with SK-MEL-5 melanoma; 4.27 µM in the test with HCC-2998 colon. The TGI in the test with HS 578T breast is over 100 µM; in the test with BT-549 breast, 2.81 µM; with SR leukemia it was 6.47 µM; in the test with MDA-MB-231 breast it was 12.6 µM; with SK-MEL-28 melanoma, 7.59 µM.
In the case of `COc1ccc(-n2c(CCC(=O)O)nc3c2C(=O)c2ccccc2C3=O)cc1`, the TGI in the test with OVCAR-3 ovarian, with HCT-116 colon, in the test with PC-3 prostate, in the test on UO-31 renal, in the test with SK-MEL-5 melanoma and in the test on HCC-2998 colon was over 100 µM throughout. Besides, the TGI in the test on HS 578T breast, in the test on BT-549 breast, in the test on SR leukemia, in the test on MDA-MB-231 breast and with SK-MEL-28 melanoma was over 100 µM each time.
